Measured values: patent US20240025893A1, “PYRIMIDINE-AND NITROGEN-CONTAINING BICYCLIC COMPOUND” (Asahi Kasei Pharma Corporation, priority 2020, published 2024)

Assays:
human IRAK-4 = human IRAK-4 (Homo sapiens (Human), UniProt Q9NWZ3); assay: Measurement of human IRAK-4 inhibitory activity (TR-FRET, peptide substrate phosphorylation, 10 μM ATP); type: biochemical; conditions: 1 nM IRAK-4, 10 μM ATP, 23° C., 30 minutes; average values
Summary of the method: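 With 1 nM IRAK-4, 0.5 μM biotinylated peptide and 10 μM ATP, compound incubated 30 min at 23 °C in 50 mM HEPES pH 7.2 with Mg2+/Mn2+. Stopped with EDTA plus europium-cryptate anti-phosphopeptide antibody and streptavidin-XL665, 60 min at 23 °C. Activity taken as the 665/620 nm TR-FRET ratio.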

[1] = test system: collagen-induced arthritis in Lewis rats; assay: Rat collagen-induced arthritis model (footpad volume); type: in vivo; conditions: 19 days after first immunization
Procedure: Eight weeks old female Lewis rats (SLC Inc.) were immunized with bovine type II collagen (CII, Collagen Technical Study Session, product number K41) to induce arthritis. A 1:1 mixed emulsion of the incomplete Freund's adjuvant (Difco, Cat. 263910) and a 3 mg/mL solution of CII was prepared, and 0.7 mL of the emulsion was injected to each rat at seven sites in the tale base part and skins of both fore and hind legs in a volume of 0.1 mL per site. Booster immunization was performed after 7 days by injecting 0.2 mL of the same 1:1 mixed emulsion of the incomplete Freund's adjuvant and CII as that used in the first day at two sites in the tale base part in a volume of 0.1 mL per site. After 12 days, footpad volumes of the both hind feet of the animals were measured by using Plethysmometer (UGO BASILE, Cat. 37140), and the individual animals were divided into groups according to the footpad volume ratio based on that of the normal group and body weight. After they were divided into groups, administration of a test compound or a solvent (vehicle, 0.5% methylcellulose) was started, and it was orally administered twice a day for 7 days (provided that, on the day of grouping, the administration was performed only once after grouping). After the start of the administration, the footpad volumes of both hind feet of the animals were measured every other day or every 3 days by using Plethysmometer, and influence of the test compound was evaluated.
Average value of the footpad volumes was calculated for each individual on each measurement day by using Excel 2010 (Microsoft), and plotted as a graph by using GraphPadPrism 7.03 (GraphPad Software, Inc.). The normal group was defined to be a 100% suppression group, and the solvent administration group was defined to be a 0% suppression group. The suppression ratios based on these controls were calculated for each concentration of the test compound by using Excel 2010 (Microsoft).

[2] = test system: LPS-stimulated TNFα production in THP-1 cells; assay: LPS-stimulated TNFα production inhibition test using human acute monocytic leukemia cell strain THP-1; type: cell-based; conditions: LPS 2.5 ng/mL, average values
Summary of the method: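 Readout was HTRF-measured TNFα in supernatants, calibrated against a standard curve, after LPS challenge (2.5 ng/mL final, 4 h) of THP-1 cells pretreated 1 h at 37 °C with compound. Unstimulated wells defined 100% suppression and vehicle wells 0%. IC50 was fitted with a 4-parameter logistic model.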

Sequence of human IRAK-4 (Q9NWZ3 whole entry): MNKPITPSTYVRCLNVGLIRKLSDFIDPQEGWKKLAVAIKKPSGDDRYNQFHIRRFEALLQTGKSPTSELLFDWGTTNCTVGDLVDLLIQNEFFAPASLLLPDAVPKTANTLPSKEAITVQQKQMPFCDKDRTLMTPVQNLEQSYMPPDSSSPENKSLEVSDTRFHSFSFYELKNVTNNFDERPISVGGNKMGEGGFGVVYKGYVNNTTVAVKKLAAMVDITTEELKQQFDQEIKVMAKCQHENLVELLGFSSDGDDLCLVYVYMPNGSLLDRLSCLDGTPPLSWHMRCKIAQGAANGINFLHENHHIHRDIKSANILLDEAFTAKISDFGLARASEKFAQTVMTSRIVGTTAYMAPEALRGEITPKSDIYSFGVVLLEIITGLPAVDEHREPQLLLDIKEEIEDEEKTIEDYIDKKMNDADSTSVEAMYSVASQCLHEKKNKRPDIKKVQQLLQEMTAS

For `COc1c(-c2cnc(CO[C@H]3CCC[C@@H]3O)nc2)ccc2nc(NC(=O)C3CC3)sc12` [c-01-01, N-(6-(2-((((1S,2S)-2-Hydroxycyclopentyl)oxy)methyl)pyrimidin-5-yl)-7-methoxybenzo[d]thiazol-2-yl)cyclopropanecarboxamide], the IC50 (human IRAK-4) was 3.92 nM, the “suppression ratio (footpad volume)” value ([1]; 20 mg/kg orally twice a day) was 45% and the “suppression ratio (footpad volume)” value ([1]; 60 mg/kg orally twice a day) was 65%. The “suppression ratio (footpad volume)” value ([1]; 120 mg/kg orally twice a day) was 77% and the IC50 ([2]; Homo sapiens, THP-1, 4 h) was 143 nM.

Molecule `Cc1cc(C(=O)N2CCN([C@H]3C[C@@H](C(=O)Nc4cc5cc(-c6cnc(CO[C@H]7CCC[C@@H]7O)nc6)ccn5n4)C3)[C@@H](C)C2)ccn1` [e-02-01, (1R,3s)-N-(5-(2-((((1S,2S)-2-Hydroxycyclopentyl)oxy)methyl)pyrimidin-5-yl)pyrazolo[1,5-a]pyridin-2-yl)-3-((S)-2-methyl-4-(2-methylisonicotinoyl)piperazin-1-yl)cyclobutane-1-carboxamide] has an IC50 (human IRAK-4) of 1.43 nM and an IC50 ([2]; Homo sapiens, THP-1, 4 h) of 77 nM.

Work on `C[C@H]1CN(C(=O)c2cccnc2)CCN1[C@H]1C[C@@H](C(=O)Nc2cc3cc(-c4cnc(CO[C@H]5CCC[C@@H]5O)nc4)ccn3n2)C1` [e-02-02] yielded an IC50 (human IRAK-4) of 1.38 nM and an IC50 ([2]; Homo sapiens, THP-1, 4 h) of 123 nM.

`C[C@H]1CN(C(=O)c2ccc(C(F)(F)F)nc2)CCN1[C@H]1C[C@@H](C(=O)Nc2cc3cc(-c4cnc(CO[C@H]5CCC[C@@H]5O)nc4)ccn3n2)C1` [e-02-03] gave an IC50 (human IRAK-4) of 2.23 nM and an IC50 ([2]; Homo sapiens, THP-1, 4 h) of 67 nM.

`C[C@H]1CN(CC(F)(F)F)CCN1[C@H]1C[C@@H](C(=O)Nc2cc3cc(-c4cnc(CO[C@H]5CCC[C@@H]5O)nc4)ccn3n2)C1` [e-02-04] was tested, and the IC50 (human IRAK-4) was 1.05 nM and the IC50 ([2]; Homo sapiens, THP-1, 4 h) was 116 nM.

Work on `CCC(=O)N1CCN([C@H]2C[C@@H](C(=O)Nc3cc4cc(-c5cnc(CO[C@H]6CCC[C@@H]6O)nc5)ccn4n3)C2)[C@@H](C)C1` [e-02-05] yielded an IC50 (human IRAK-4) of 1.14 nM and an IC50 ([2]; Homo sapiens, THP-1, 4 h) of 123 nM.

Molecule `C[C@H]1CN(C(=O)C2CCC2)CCN1[C@H]1C[C@@H](C(=O)Nc2cc3cc(-c4cnc(CO[C@H]5CCC[C@@H]5O)nc4)ccn3n2)C1` [e-02-06] has an IC50 (human IRAK-4) of 1.3 nM and an IC50 ([2]; Homo sapiens, THP-1, 4 h) of 113 nM.

`CC(C)C(=O)N1CCN([C@H]2C[C@@H](C(=O)Nc3cc4cc(-c5cnc(CO[C@H]6CCC[C@@H]6O)nc5)ccn4n3)C2)[C@@H](C)C1` [e-02-07] showed an IC50 (human IRAK-4) of 1.33 nM and an IC50 ([2]; Homo sapiens, THP-1, 4 h) of 152 nM.

In the case of `CC(=O)N1CCN([C@H]2C[C@@H](C(=O)Nc3cc4cc(-c5cnc(CO[C@H]6CCC[C@@H]6O)nc5)ccn4n3)C2)[C@@H](C)C1` [e-02-08], the IC50 (human IRAK-4) is reported as 1.32 nM and the IC50 ([2]; Homo sapiens, THP-1, 4 h) is reported as 165 nM.

`C[C@H]1CN(C(=O)c2ccccc2)CCN1[C@H]1C[C@@H](C(=O)Nc2cc3cc(-c4cnc(CO[C@H]5CCC[C@@H]5O)nc4)ccn3n2)C1` [e-02-09] gave an IC50 (human IRAK-4) of 1.09 nM and an IC50 ([2]; Homo sapiens, THP-1, 4 h) of 65 nM.

`C[C@H]1CN(C(=O)C2CC2)CCN1[C@H]1C[C@@H](C(=O)Nc2cc3cc(-c4cnc(CO[C@H]5CCC[C@@H]5O)nc4)ccn3n2)C1` [e-02-10] was tested, and the IC50 (human IRAK-4) was 1.09 nM and the IC50 ([2]; Homo sapiens, THP-1, 4 h) was 131 nM.

For `CC(C)[C@H]1COCCN1[C@H]1C[C@@H](C(=O)Nc2cc3cc(-c4cnc(CO[C@H]5CCC[C@@H]5O)nc4)ccn3n2)C1` [e-02-11], the IC50 (human IRAK-4) was 1.04 nM and the IC50 ([2]; Homo sapiens, THP-1, 4 h) was 95 nM.

`C[C@H]1CN(C(=O)c2cccnc2)CCN1[C@H]1C[C@@H](C(=O)Nc2cc3cc(-c4cnc(CO[C@H]5CCC[C@@H]5O)nc4)ccn3n2)C1` [e-02-12] showed an IC50 (human IRAK-4) of 1.9 nM and an IC50 ([2]; 4 hours) of 129 nM.

`CCCOCc1ncc(-c2ccn3nc(NC(=O)[C@H]4C[C@@H](N5CCN(C(=O)c6ccnc(C)c6)C[C@@H]5C)C4)cc3c2)cn1` [e-02-14] was tested, and the IC50 (human IRAK-4) was 1.64 nM and the IC50 ([2]; Homo sapiens, THP-1, 4 h) was 139 nM.

Molecule `CCCOCc1ncc(-c2ccn3nc(NC(=O)[C@H]4C[C@@H](N5CCN(C(=O)C6CCOC6)C[C@@H]5CC)C4)cc3c2)cn1` (stereo partly shown) [e-02-15] has an IC50 (human IRAK-4) of 1.81 nM and an IC50 ([2]; Homo sapiens, THP-1, 4 h) of 167 nM.

In the case of `CCCOCc1ncc(-c2ccn3nc(NC(=O)[C@H]4C[C@@H](N5CCN(C(=O)c6ccc(C(F)(F)F)cn6)C[C@@H]5C)C4)cc3c2)cn1` [e-02-16], the IC50 (human IRAK-4) is reported as 1.85 nM and the IC50 ([2]; Homo sapiens, THP-1, 4 h) is reported as 175 nM.

Work on `CCCOCc1ncc(-c2ccn3nc(NC(=O)[C@H]4C[C@@H](N5CCN(C(=O)c6ccnc(C(F)(F)F)c6)C[C@@H]5C)C4)cc3c2)cn1` [e-02-17] yielded an IC50 (human IRAK-4) of 1.36 nM and an IC50 ([2]; Homo sapiens, THP-1, 4 h) of 200 nM.

With `CCCOCc1ncc(-c2ccn3nc(NC(=O)[C@H]4C[C@@H](N5CCN(C(=O)c6cccc(C)n6)C[C@@H]5C)C4)cc3c2)cn1` [e-02-18] the IC50 (human IRAK-4) was 1.84 nM and the IC50 ([2]; Homo sapiens, THP-1, 4 h) was 200 nM.

Work on `CCCOCc1ncc(-c2ccn3nc(NC(=O)[C@H]4C[C@@H](N5CCN(C(=O)C6CCOCC6)C[C@@H]5CC)C4)cc3c2)cn1` [e-02-19] yielded an IC50 (human IRAK-4) of 1.19 nM and an IC50 ([2]; Homo sapiens, THP-1, 4 h) of 191 nM.

Molecule `CCCOCc1ncc(-c2ccn3nc(NC(=O)[C@H]4C[C@@H](N5CCN(C(=O)N(C)C)C[C@@H]5C)C4)cc3c2)cn1` [e-02-20] has an IC50 (human IRAK-4) of 2.22 nM and an IC50 ([2]; Homo sapiens, THP-1, 4 h) of 244 nM.

For `CCCOCc1ncc(-c2ccn3nc(NC(=O)[C@H]4C[C@@H](N5CCN(C(=O)c6coc(C)n6)C[C@@H]5C)C4)cc3c2)cn1` [e-02-21], the IC50 (human IRAK-4) was 1.73 nM and the IC50 ([2]; Homo sapiens, THP-1, 4 h) was 188 nM.

`CCCOCc1ncc(-c2ccn3nc(NC(=O)[C@H]4C[C@@H](N5CCN(C(=O)c6ccc(Cl)cn6)C[C@@H]5C)C4)cc3c2)cn1` [e-02-22] showed an IC50 (human IRAK-4) of 1.29 nM and an IC50 ([2]; Homo sapiens, THP-1, 4 h) of 106 nM.

With `CCCOCc1ncc(-c2ccn3nc(NC(=O)[C@H]4C[C@@H](N5CCN(C(=O)c6cc(C)nc(C)c6)C[C@@H]5C)C4)cc3c2)cn1` [e-02-23] the IC50 (human IRAK-4) was 0.88 nM and the IC50 ([2]; Homo sapiens, THP-1, 4 h) was 111 nM.

In the case of `Cc1nc(C(=O)N2CCN([C@H]3C[C@@H](C(=O)Nc4cc5cc(-c6cnc(CO[C@H]7CCC[C@@H]7O)nc6)ccn5n4)C3)[C@@H](C)C2)co1` [e-02-24], the IC50 (human IRAK-4) is reported as 1.27 nM and the IC50 ([2]; Homo sapiens, THP-1, 4 h) is reported as 117 nM.

`C[C@H]1CN(C(=O)c2ccc(Cl)cn2)CCN1[C@H]1C[C@@H](C(=O)Nc2cc3cc(-c4cnc(CO[C@H]5CCC[C@@H]5O)nc4)ccn3n2)C1` [e-02-25] was tested, and the IC50 (human IRAK-4) was 1.58 nM and the IC50 ([2]; Homo sapiens, THP-1, 4 h) was 53 nM.

For `C[C@H]1CN(C(=O)c2ccon2)CCN1[C@H]1C[C@@H](C(=O)Nc2cc3cc(-c4cnc(CO[C@H]5CCC[C@@H]5O)nc4)ccn3n2)C1` [e-02-26], the IC50 (human IRAK-4) was 1.86 nM and the IC50 ([2]; Homo sapiens, THP-1, 4 h) was 80 nM.

In the case of `Cc1cc(C(=O)N2CCN([C@H]3C[C@@H](C(=O)Nc4cc5cc(-c6cnc(CO[C@H]7CCC[C@@H]7O)nc6)ccn5n4)C3)[C@@H](C)C2)cc(C)n1` [e-02-27], the IC50 (human IRAK-4) is reported as 1.38 nM and the IC50 ([2]; Homo sapiens, THP-1, 4 h) is reported as 54 nM.

Molecule `COc1c(-c2cnc(CO[C@H]3CCC[C@@H]3O)nc2)ccn2nc(NC(=O)C3CC3)cc12` [e-04-01, N-(5-(2-((((1S,2S)-2-Hydroxycyclopentyl)oxy)methyl)pyrimidin-5-yl)-4-methoxypyrazolo[1,5-a]pyridin-2-yl)cyclopropanecarboxamide] has an IC50 (human IRAK-4) of 3.74 nM and an IC50 ([2]; Homo sapiens, THP-1, 4 h) of 431 nM.

For `COc1c(-c2cnc(CO[C@H]3CCC[C@H]3O)nc2)ccn2nc(NC(=O)C3CC3)cc12` [e-04-02], the IC50 (human IRAK-4) was 1.07 nM and the IC50 ([2]; 4 hours) was 314 nM.
